Data from patent US20090306015A1, “PHARMACEUTICAL COMPOSITIONS AND METHODS OF USE OF HIGHLY LIPOPHILIC SULFHYDRYL COMPOUNDS” (Silamed, Inc., priority 2005, published 2009).
Like-named read-outs stand apart in the source and are kept apart here.

Tests used:
Format in all cases: cell-based
[1] = system: human MD-MBA-231 breast cancer cells; assay: CellTiter-Blue cell viability, 6-hour pretreatment before doxorubicin administration; settings: for 72 Hours IC10 Doxorubicin / 96 Hours IC10 Doxorubicin: 6-hour pretreatment with compound before IC10 doxorubicin; for 72 Hours IC30 Doxorubicin / 96 Hours IC30 Doxorubicin: 6-hour pretreatment with compound before IC30 doxorubicin
Protocol: (§1) CellTiter-Blue® Reagent Method: Following incubation with test compounds for 72 or 96 hours, human MD-MBA-231 breast cancer cells were briefly washed, […] stained with the CellTiter-Blue® Reagent resazurin. Resazurin measures the metabolic capacity of cells, an indicator of cell viability. Viable cells retain the ability to reduce resazurin into resorufin, that is highly fluorescent. […] This test measures the degree of cytotoxicity caused by the test material. IC50 determination: Data are expressed as the percentage of survival of the untreated (vehicle) control calculated from the fluorescence corrected for background absorbance. The surviving fraction of cells were determined by dividing the mean fluorescence values of the test agents by the mean fluorescence values of untreated control. The inhibitory concentration value for the test agent(s) and control were estimated using Prism 4 software (GraphPad Software, Inc.) by curve-fitting the data using the non-linear regression analysis. In some instances IC50 values could not be extrapolated and these are marked (*). Compounds of the invention were tested as monotherapy and results presented in TABLE 1 Compounds of the invention were tested in combination with inhibitory concentration 30% and 10% (IC30/IC10) of Adriamycin (doxorubicin) following 6 hours of pretreatment with example compounds and results presented in TABLE 3

[2] = system: human MD-MBA-231 breast cancer cells; assay: CellTiter-Blue cell viability, monotherapy
Protocol: as §1, with “(*).” for “(*). Compounds of the invention were tested as monotherapy and results presented in TABLE 1 Compounds of the invention were tested in combination with inhibitory concentration 30% and 10% (IC30/IC10) of Adriamycin (doxorubicin) following 6 hours of pretreatment with example compounds and results presented in TABLE 3”

[3] = system: human MD-MBA-231 breast cancer cells; assay: CellTiter-Blue cell viability, concurrent combination treatment with doxorubicin; settings: for 72 Hours IC10 Doxorubicin / 96 Hours IC10 Doxorubicin: concurrent combination with IC10 of Adriamycin (doxorubicin); for 72 Hours IC30 Doxorubicin / 96 Hours IC30 Doxorubicin: concurrent combination with IC30 of Adriamycin (doxorubicin)
Protocol: as §1, with “(doxorubicin)” for “(doxorubicin) following 6 hours of pretreatment with example compounds”, “TABLE 2” for “TABLE 3”

[4] = 72 hours incubation, read-out: 72 Hours Treatment IC50
[5] = 96 hours incubation, read-out: 96 Hours Treatment IC50

SMILES | 72 Hours IC10 Doxorubicin [1] | 96 Hours IC10 Doxorubicin [1] | IC50 [2, 4] | 72 Hours IC10 Doxorubicin [3] | 72 Hours IC30 Doxorubicin [3] | 96 Hours IC30 Doxorubicin [3] | 72 Hours IC30 Doxorubicin [1] | 96 Hours IC30 Doxorubicin [1] | IC50 [2, 5] | 96 Hours IC10 Doxorubicin [3]
CC(=O)N[C@@H](CS)C(=O)O [N-Acetyl-L-Cysteine, reference compound] | 499.10 µM | 454.10 µM | 277 µM | 129.70 µM | 639.30 µM | 925.2 µM | – | – | – | –
CC(=O)N[C@@H](CS)C(=O)NC[Si](C)(C)c1ccccc1 [Example 3, (R)-2-acetamido-N-((dimethyl(phenyl)silyl)methyl)-3-mercaptopropanamide] | 35.69 µM | 37.88 µM | 28.1 µM | 8.553 µM | 39.29 µM | 30.63 µM | 11.21 µM | 3.799 µM | 24.3 µM | 9.479 µM
CC(=O)N[C@@H](CS)C(=O)NC[Si](C)(C)C [Example 2, (R)-2-acetamido-3-mercapto-N-((trimethylsilyl)methyl)propanamide] | 210.70 µM | – | 132 µM | 49.42 µM | 269.0 µM | – | 56.64 µM | 14.68 µM | 136 µM | 34.55 µM
CC(=O)N[C@@H](CS)C(=O)NCCC[Si](C)(C)C [Eample 1, (R)-2-acetamido-3-mercapto-N-(3-(trimethylsilyl)propyl)propanamide] | 27.13 µM | 34.20 µM | 21.6 µM | 7.49 µM | 29.67 µM | 26.70 µM | 10.04 µM | 2.162 µM | 18.8 µM | 6.703 µM
